System: human dermal fibroblasts
Assay: Senolytic activity study: SA-beta-galactosidase flow cytometry on a mixed 70% normal / 30% senescent cell population
Assay type: cell-based
Conditions: 72 hours; for Senescent cells left from 30%: normalized to untreated control, n = 4
Procedure: Normal and senescent cell populations were obtained from normal human dermal fibroblasts. For the normal cell population, the cells were seeded in cell culture medium (Dulbecco's Modified Eagle Medium supplemented with 10% serum and 1% antibiotics) and allowed to adhere and proliferate in a humidified cell incubator maintaining 37°C and 5% CO2. These were then passaged or collected when 90% confluent. For the senescent cell population, the normal fibroblast cells were at this stage shortly exposed to 200 µM H2O2 followed by normal cell culture medium. Several days later, the cells were treated again with H2O2 to obtain a fully senescent population.
Both normal and senescent populations were mixed into a 70% normal and 30% senescent cell population and represented the treatment population. Afterward, the 70% normal and 30% senescent cell population were seeded in cell culture medium and allowed to adhere in the cell incubator. After adherence, the medium was aspirated, and the treatment medium (Dulbecco's Modified Eagle Medium supplemented with 1% serum) containing the respective compounds at various concentrations (see Table 1) was added to the cells. For assay validation purposes, one condition with treatment medium only (without compound as negative control) and one condition with navitoclax (a known senolytic as positive control); both not included in the presented data. The cells were incubated in the cell incubator for at least 72 hours. Afterward, senescence-associated beta-galactosidase was visualized - a well-known senescence marker- in the cells to quantify the senescence levels using flow cytometry.
Data are normalized to the untreated control (30% senescent cells and 70% normal cells) (n = 4).

[1] = 1 µM, 70% normal and 30% senescent human dermal fibroblasts
[2] = 5 µM, 70% normal and 30% senescent human dermal fibroblasts
[3] = 25 µM, 70% normal and 30% senescent human dermal fibroblasts
[4] = concentration not given, human dermal fibroblasts

SMILES	Senolytic effect [1]	Senolytic effect [2]	Senolytic effect [3]	Senescent cells left from 30% [3]	Senolytic effect [4]	Senescent cells left from 30% [1]	Senescent cells left from 30% [2]
COc1ccc(-c2cc(=O)c3c(OC)c(OC)c(OC)cc3o2)cc1 [(I'33)]	yes	yes	yes	–	–	–	–
COc1cc([C@@H]2CC(=O)c3c(O)cc(O)cc3O2)ccc1O [(I"1)]	–	–	yes	23%	–	–	–
COc1ccc(-c2coc3cc(O)cc(O)c3c2=O)cc1 [(I'7)]	yes	yes	yes	–	–	–	–
O=c1cc(-c2ccc(O)cc2)oc2c(-c3c(O)cc(O)c4c(=O)cc(-c5ccc(O)cc5)oc34)c(O)cc(O)c12 [(I'9)]	yes	yes	yes	–	–	–	–
COc1cc(-c2cc(=O)c3c(O)c(OC)c(OC)c(OC)c3o2)cc(OC)c1OC [(I'29)]	yes	yes	yes	–	–	–	–
O=c1c(O)c(-c2ccc(O)cc2)oc2cc(O)cc(O)c12 [(I'17)]	yes	yes	yes	–	–	–	–
COc1ccc(-c2cc(=O)c3ccc(O)cc3o2)cc1 [(I'32)]	yes	yes	yes	–	–	–	–
COc1ccc(C2CC(=O)c3c(O)cc(O)cc3O2)cc1O (centres unmarked) [(I"4)]	yes	yes	yes	–	–	–	–
O=C1CC(c2ccccc2)Oc2ccc(O)cc21 (centres unmarked) [(I"5)]	yes	yes	yes	–	–	–	–
COc1ccc(-c2cc(=O)c3c(O)cc(O)cc3o2)cc1O [(I'27)]	yes	yes	yes	–	–	–	–
COc1c(O[C@@H]2O[C@H](CO)[C@@H](O)[C@H](O)[C@H]2O)cc2oc(-c3ccc(O)c(O)c3)c(O)c(=O)c2c1O [(I'15)]	yes	yes	yes	–	–	–	–
COc1c(-c2ccccc2)oc2ccccc2c1=O [(I'23)]	–	–	yes	21%	yes	–	–
O=C1c2c(O)cc(O)cc2OC(c2cc(O)c(O)c(O)c2)C1O (centres unmarked) [(I"3)]	yes	yes	yes	–	–	–	–
O=c1c(O)c(-c2cc(O)c(O)c(O)c2)oc2cc(O)ccc12 [(I'21)]	yes	yes	yes	–	–	–	–
O=C1CC(c2ccccc2)Oc2cc(O)ccc21 (centres unmarked) [(I"8)]	yes	yes	–	–	yes	24%	24%
COc1c(O)cc2oc(-c3ccc(O)c(O)c3)cc(=O)c2c1O [(I'18)]	yes	yes	yes	–	–	–	–
COc1ccc(-c2cc(=O)c3c(O)cc(O[C@@H]4O[C@H](CO)[C@@H](O)[C@H](O)[C@H]4O)cc3o2)cc1O [(I'11)]	–	yes	yes	–	–	–	–
O=c1cc(-c2ccc(O)c(O)c2)oc2c(O)c(O)ccc12 [(I'1)]	yes	yes	yes	–	–	–	–
O=c1c(-c2ccc(O)cc2)coc2cc(O[C@@H]3O[C@H](CO)[C@@H](O)[C@H](O)[C@H]3O)ccc12 [(I'26)]	yes	–	–	–	yes	25%	–
O=C1c2c(O)cc(O)cc2O[C@H](c2cc(O)c(O)c(O)c2)[C@H]1O [(I"2)]	yes	yes	yes	–	–	–	–

SMILES	Senolytic effect [1]	Senolytic effect [2]	Senolytic effect [3]	Senescent cells left from 30% [3]	Senolytic effect [4]	Senescent cells left from 30% [1]	Senescent cells left from 30% [2]
COc1cc(O)c2c(=O)c(O)c(-c3ccc(O)c(O)c3)oc2c1 [(I'20)]	yes	yes	yes	–	–	–	–
O=c1c(O)c(-c2ccccc2O)oc2cc(O)cc(O)c12 [(I'25)]	yes	yes	yes	–	–	–	–
CC(C)Oc1ccc2c(=O)c(-c3ccccc3)coc2c1 [(I'16)]	yes	yes	yes	–	–	–	–
COc1cc(-c2coc3cc4c(c(OC)c3c2=O)OCO4)cc(OC)c1OC [(I'30)]	–	–	yes	26%	yes	–	–
COc1cc(-c2cc(=O)c3c(O)cc(O)cc3o2)ccc1O [(I'8)]	yes	yes	yes	–	–	–	–
COc1cc(C2CC(=O)c3c(O)cc(O)cc3O2)ccc1O (centres unmarked) [(I"10)]	–	–	yes	22%	yes	–	–
COc1cc(C)c2c(=O)c(-c3ccccc3)coc2c1 [(I'4)]	yes	yes	yes	–	–	–	–
COc1cc2oc(-c3ccccc3)cc(=O)c2c(OC)c1OC [(I'24)]	–	yes	yes	–	yes	–	–
O=c1c(O)c(-c2ccc(O)cc2)oc2c(O)c(O)cc(O)c12 [(I'10)]	–	yes	yes	–	–	–	–
O=C1CC(c2ccc(O)c(O)c2)Oc2cc(O)cc(O)c21 (centres unmarked) [(I"11)]	yes	yes	–	–	yes	–	–
COc1cc2c(=O)c(-c3ccc(O)cc3)coc2cc1O [(I'28)]	–	–	yes	23%	yes	–	–
CC1OC(Oc2c(-c3cc(O)c(O)c(O)c3)oc3cc(O)cc(O)c3c2=O)C(O)C(O)C1O (centres unmarked) [(I'14)]	yes	yes	yes	–	–	–	–
COc1cc(O)c2c(c1)OC(c1ccccc1)CC2=O (centres unmarked) [(I"6)]	yes	yes	yes	–	–	–	–
O=c1cc(-c2cc(O)c(O)c(O)c2)oc2cc(O)cc(O)c12 [(I'22)]	yes	yes	yes	–	–	–	–
COc1cc2oc(-c3ccccc3)cc(=O)c2c(O)c1O [(I'6)]	yes	yes	yes	–	–	–	–
COc1cc(O)c2c(c1)OC(c1ccc(O)cc1)CC2=O (centres unmarked) [(I"7)]	yes	yes	yes	–	–	–	–
COc1cc(O)c2c(=O)c(O)c(-c3ccc(O)c(OC)c3)oc2c1 [(I'19)]	yes	yes	yes	–	–	–	–
COc1ccc(-c2cc(=O)c3c(OC)cc(OC)cc3o2)cc1 [(I'5)]	yes	yes	yes	–	–	–	–
COc1cc(-c2oc3cc(O)ccc3c(=O)c2O)cc(OC)c1OC [(I'3)]	yes	yes	yes	–	–	–	–
O=c1c(-c2ccc(O)c(O)c2)coc2cc(O)ccc12 [(I'2)]	yes	yes	yes	–	–	–	–

— patent publication EP4480471A1, “SPECIFIC COMPOUNDS FOR TREATING SIGNS OF SKIN AGING AND/OR HAIR AGING” (DSM IP Assets B.V., priority 2023, dated 2024)
